# Patent EP0745597A2, “Novel melatonergic indanyl piperazines or homopiperazines” (BRISTOL-MYERS SQUIBB COMPANY, priority 1995, dated 1996)
# Target: T1, human ML1B receptor (Homo sapiens, UniProt P49286)
# T1 construct: host or cells: NIH 3T3 cells, stably transfected; membrane homogenates
# T1 sequence (P49286 1-362): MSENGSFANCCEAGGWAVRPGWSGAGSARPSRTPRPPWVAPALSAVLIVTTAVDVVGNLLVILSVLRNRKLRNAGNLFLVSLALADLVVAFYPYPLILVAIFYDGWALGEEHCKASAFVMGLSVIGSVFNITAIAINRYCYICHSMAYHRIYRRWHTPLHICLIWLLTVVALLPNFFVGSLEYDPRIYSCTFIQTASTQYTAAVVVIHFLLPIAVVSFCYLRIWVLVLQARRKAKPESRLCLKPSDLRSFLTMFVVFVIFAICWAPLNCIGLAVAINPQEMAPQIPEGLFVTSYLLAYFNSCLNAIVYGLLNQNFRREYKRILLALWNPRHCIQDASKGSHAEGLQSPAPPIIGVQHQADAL
# Test: Measurement of binding to melatonergic receptors (2-[125I]-iodomelatonin, membranes of transfected NIH 3T3 cells)
# Details: 2-[125I]-Iodomelatonin 200 pM, 37 °C for 1 hour, NIH 3T3 cells stably transfected with the human ML1B receptor; read-out: Melatonin Binding
# Procedure: The melatonergic binding affinities of various compounds of Formula I were determined by the method of Reppert, S. M., Weaver, D. R., and Ebisawa, R. (Neuron, Volume 13, 1177-1185, 1994). The assays were incubated at 37 °C for 1 hour, and the reaction was terminated by filtration. The filters were washed with wash buffer. […] The reagents, membrane and other techniques used in the melatonergic binding assays are more fully described below: • 1. Reagents: • (a) 50 mM Tris buffer containing 12.5 mM MgCl2, and 2mM EDTA, pH 7.4 at 37 °C. • (b) Wash buffer: 20 mM Tris base containing 2 mM MgCl2. pH 7.4 at room temperature. • (c) Melatonin (10^-5 M final concentration). • (d) 2-[^125I]-Iodomelatonin, 200 pM final concentration Source: NEN • 2. Membrane preparation: NIH 3T3 cells stably transfected with the human ML1B receptor were obtained from S.M. Reppert and maintained. Cells were pelleted when confluent. The supernatant was discarded and the pellets frozen. For preparing membrane homogenates, the pellets are thawed on ice and resuspended in TME buffer, Tris base, MgCl2, EDTA (pH 7.4 at 37 °C ), supplemented with aprotinin, leupeptin, and […]. The cells were then homogenized and centrifuged. The resulting pellet was resuspended with a Dounce homogenizer in TME and frozen. At assay, a small aliquot was thawed on ice and resuspended in TME buffer. […] These compounds are considered active.
row,IC50,SMILES
1,10 to 100 nM,CNC(=O)N1CCN(C2CCc3cc(F)c(OC)cc32)CC1 (stereo not drawn) [N-Methyl-4-(5-fluoro-6-methoxy-indan-1-yl)piperazine-1-carboxamide]
2,< 10 nM,CNC(=O)N1CCN(C2CCc3ccc(OC)cc32)CC1 (stereo not drawn) [N-Methyl-4-(6-methoxy-indan-1-yl)piperazine-1-carboxamide]
3,10 to 100 nM,CNC(=O)N1CCN(C2CCCc3ccc(OC)cc32)CC1 (stereo not drawn) [N-Methyl-4-(7-methoxy-tetralin-1-yl)piperazine-1-carboxamide]
